Holding throughout (type): functional, cell-based
Assay [1] deals with Glioma. The assay can be described thus: Cytotoxicity against human Glioma cells (HF2476) after 72 hrs by CelltiterGlo assay. In general terms: In ATP-based viability assays light output follows the ATP content of the culture.
Assay [2] concerns Glioma. The assay can be described thus: Cytotoxicity against human Glioma cells (HF2303) after 72 hrs by CelltiterGlo assay in presence of mTOR inhibitor AZD-8055.
Assay [3] deals with Glioma. The assay can be described thus: Induction of apoptosis in human Glioma cells (HF2476) assessed as increase in cleaved caspase-3 level by western blot analysis. (A western blot detects proteins with antibodies after separation by electrophoresis.)
Assay [4] concerns Glioma. The assay can be described thus: Cytotoxicity against human Glioma cells (HF3013) after 72 hrs by CelltiterGlo assay.
In assay [5] the test system is Glioma. The assay can be described thus: Cytotoxicity against human Glioma cells (HF2303) after 72 hrs by CelltiterGlo assay.
The subject of assay [6] is Glioma. The assay can be described thus: Cytotoxicity against human Glioma cells (HF2476) after 72 hrs by CelltiterGlo assay in presence of mTOR inhibitor AZD-8055.
Assay [7] relates to Glioma. The assay can be described thus: Induction of apoptosis in human Glioma cells (HF2876) assessed as increase in cleaved caspase-3 level by western blot analysis.
In assay [8] the test system is Glioma. The assay can be described thus: Cytotoxicity against human Glioma cells (HF2876) after 72 hrs by CelltiterGlo assay in presence of mTOR inhibitor AZD-8055.
The subject of assay [9] is Glioma. The assay can be described thus: Cytotoxicity against human Glioma cells (HF2876) after 72 hrs by CelltiterGlo assay.
The subject of assay [10] is Glioma. Description: Cytotoxicity against human Glioma cells (HF3013) after 72 hrs by CelltiterGlo assay in presence of mTOR inhibitor AZD-8055.
Assay [11] concerns Glioma. The assay can be described thus: Decrease in phosphorylated S6 ribosomal protein level at Ser235 residue in human Glioma cells (HF2476) by western blot analysis.
The subject of assay [12] is Glioma. The assay can be described thus: Decrease in phosphorylated S6 ribosomal protein level at Ser236 residue in human Glioma cells (HF2876) by western blot analysis.
Assay [13] deals with Glioma. Description: Cytotoxicity against human Glioma cells (HF2303) after 72 hrs by CelltiterGlo assay in presence of Bcl2-inhibitor ABT-263.
Assay [14] has as its system Glioma. The assay can be described thus: Cytotoxicity against human Glioma cells (HF3013) after 72 hrs by CelltiterGlo assay in presence of Bcl2-inhibitor ABT-263.
The subject of assay [15] is Glioma. Description: Cytotoxicity against human Glioma cells (HF2476) after 72 hrs by CelltiterGlo assay in presence of Bcl2-inhibitor ABT-263.
For assay [16], the system named is Glioma. The assay can be described thus: Decrease in phosphorylated S6 ribosomal protein level at Ser236 residue in human Glioma cells (HF2476) by western blot analysis.
Assay [17] deals with Glioma. Description: Decrease in phosphorylated S6 ribosomal protein level at Ser235 residue in human Glioma cells (HF2876) by western blot analysis.
The subject of assay [18] is Glioma. The assay can be described thus: Cytotoxicity against human Glioma cells (HF2876) after 72 hrs by CelltiterGlo assay in presence of Bcl2-inhibitor ABT-263.
Assay [19] concerns Glioma. The assay can be described thus: Cytotoxicity against human Glioma cells (HF2885) at 50 uM after 72 hrs by CelltiterGlo assay.
The test system of assay [20] is Glioma. Description: Cytotoxicity against human Glioma cells (HF2303) at 50 uM after 72 hrs by CelltiterGlo assay.
The subject of assay [21] is Glioma. The assay can be described thus: Cytotoxicity against human Glioma cells (HF2790) at 50 uM after 72 hrs by CelltiterGlo assay.
The subject of assay [22] is Glioma. Description: Cytotoxicity against human Glioma cells (HF2381) at 50 uM after 72 hrs by CelltiterGlo assay.
Assay [23] deals with Glioma. Description: Cytotoxicity against human Glioma cells (HF2876) at 50 uM after 72 hrs by CelltiterGlo assay.
Assay [24] deals with Glioma. Description: Cytotoxicity against human Glioma cells (HF2476) at 50 uM after 72 hrs by CelltiterGlo assay.
In assay [25] the test system is Glioma. The assay can be described thus: Cytotoxicity against human Glioma cells (HF3013) at 50 uM after 72 hrs by CelltiterGlo assay.

The source made the active and inactive calls. The calls are words filed in the database; no cut-off is given here.

On to `CC1(C)CCC(c2ccc(Cl)cc2)=C(CN2CCN(c3ccc(C(=O)NS(=O)(=O)c4ccc(N[C@H](CCN5CCOCC5)CSc5ccccc5)c(S(=O)(=O)C(F)(F)F)c4)cc3)CC2)C1`, for which the outcome in the assay on Glioma [1], with Glioma [4], in the assay with Glioma [5] and with Glioma [9] was inactive. Also, the outcome with Glioma [2], in the assay with Glioma [3], in the assay on Glioma [6], with Glioma [7], in the assay with Glioma [8] and in the assay with Glioma [10] was Active.

With `COc1ccc(-c2ccc3c(N4CCOC[C@@H]4C)nc(N4CCOC[C@@H]4C)nc3n2)cc1CO`, the inhibition result in the assay with Glioma [11], with Glioma [12], in the assay with Glioma [16] and in the assay with Glioma [17] was “Active” each time. The result with Glioma [13] and in the assay on Glioma [18] was inactive. Further, the outcome with Glioma [14] and in the assay on Glioma [15] was Active.

For `Cn1nnc2c(C(N)=O)ncn2c1=O`, the outcome in the assay with Glioma [19], in the assay on Glioma [20], in the assay on Glioma [21], in the assay on Glioma [22], in the assay on Glioma [23] and in the assay with Glioma [24] was inactive. The outcome in the assay with Glioma [25] was inactive.

(Values after ChEMBL document CHEMBL3621205, “High-Throughput Screening of Patient-Derived Cultures Reveals Potential for Precision Medicine in Glioblastoma” (ACS Med Chem Lett, 2015).)
